Results: patent US8314110B2, “Compounds for treating mental disorders, and preparation and uses thereof” (priority 2007, dated 2012)

What was measured:
[1] = Metabolism of the compounds to the active component (compound [formula (II)]) in liver cells; details: human liver cells S9, 1 mM NADPH, 37° C., 2 hours; metabolized to the compound [formula (II)]
Description: After the precipitated proteins were removed by centrifugation, the obtained supernatant solution was adjusted to pH of 3 with concentrated potassium phosphate solution, and centrifuged again. The obtained supernatant was directly injected into HPLC for analysis.

[2] = Dissolution of the oral conventional tablets; assay type: physicochemical
Description: Tablets were obtained by direct tabletting, and each tablet contained 6 mg of active ingredient (expressed in the compound [formula (II)]).

[3] = Dissolution of oral sustained-release capsules; assay type: physicochemical
Description: Granules were obtained by using conventional fluidized bed.
After the coating was dried, the coated granules were filled into hard gelatin capsules, each capsule contain 6 mg of the active ingredient (expressed in the compound [formula (II)]), and the coating degree was 6%. The capsules were subjected to dissolution tests according the method specified in the Pharmacopoeia of the People's Republic of China.

[4] = Absolute bioavailability, beagle tests of the compound [formula (II)] and its prodrugs; assay type: in vivo; details: iv, dosage equimolar to the prodrug, compound [formula (II)] in blood
Description: Measurement of the Absolute Bioavailability—Beagle Tests of the Compound [Formula (II)] and its Prodrugs, the Compounds 1, 2, 3, 5, 6, 7 and 8
Twenty one beagles weighing about 10 kg were divided into 7 groups, and intragastrically administered the compounds 1, 2, 3, 5, 6, 7 and 8 at a dosage of 9.4 μmol/beagle, respectively. Blood samples were taken at the predetermined time points, and the concentrations of the active metabolite (the compound [formula (II)]) and prodrugs in blood were measured. In the meantime, three beagles weighing about 10 kg were intravenously administered with the compound [formula (II)] at a dosage equimolar to the prodrug, as the control group, and the concentrations of the compound [formula (II)] in blood were measured.
The prodrugs were immediately metabolized almost completely to form the active metabolite in beagle body, the compound [formula (II)] upon being administrated parenterally, and the concentrations of the original compounds were very low (see: FIG. 1C).

[5] = oral administration; cited from earlier work

| Compound | Metabolic rate (%) [1] [%] | Dissolution percentage of the active ingredient ([2]; dissolution time 2 hours) [%] | Dissolution percentage of the active ingredient ([2]; dissolution time 4 hours) [%] | Dissolution percentage of the active ingredient ([2]; dissolution time 8 hours) [%] | Dissolution percentage of the active ingredient ([3]; dissolution time 2 hours) [%] | Dissolution percentage of the active ingredient ([3]; dissolution time 4 hours) [%] | Dissolution percentage of the active ingredient ([3]; dissolution time 8 hours) [%] | Dissolution percentage of the active ingredient ([3]; dissolution time 12 hours) [%] | Dissolution percentage of the active ingredient ([3]; dissolution time 24 hours) [%] | also measured |
| --- | --- | --- | --- | --- | --- | --- | --- | --- | --- | --- |
| Cc1nc2n(c(=O)c1CCN1CCC(c3noc4cc(F)ccc34)CC1)CCCC2OC(=O)Oc1ccc([N+](=O)[O-])cc1.Cl (stereo not drawn) [Compound 9, 3-{2-[4-(6-fluoro-1,2-benzoisoxazol-3-yl)-1-piperidinyl]ethyl}-2-methyl-4-oxo-6,7,8,9-tetrahydro-pyrido[1,2-α]pyrimidin-9-yl p-nitrophenyl carbonate hydrochloride] | 89 | – | – | – | – | – | – | – | – | – |
| Cc1nc2n(c(=O)c1CCN1CCC(c3noc4cc(F)ccc34)CC1)CCCC2OC(=O)OCC(C)C.Cl.Cl (stereo not drawn) [Compound 6, 3-{2-[4-(6-fluoro-1,2-benzoisoxazol-3-yl)-1-piperidinyl]ethyl}-2-methyl-4-oxo-6,7,8,9-tetrahydro-pyrido[1,2-α]pyrimidin-9-yl isobutyl carbonate dihydrochloride] | 92 | 43 | 79 | 98 | 8.8 | 19 | 42 | 68 | 89 | – |
| Cc1nc2n(c(=O)c1CCN1CCC(c3noc4cc(F)ccc34)CC1)CCCC2OC(=O)Oc1ccccc1.Cl (stereo not drawn) [Compound 8, 3-{2-[4-(6-fluoro-1,2-benzoisoxazol-3-yl)-1-piperidinyl]ethyl}-2-methyl-4-oxo-6,7,8,9-tetrahydro-pyrido[1,2-α]pyrimidin-9-yl phenyl carbonate hydrochloride] | 94 | – | – | – | – | – | – | – | – | – |
| Cc1nc2n(c(=O)c1CCN1CCC(c3noc4cc(F)ccc34)CC1)CCCC2O (stereo not drawn) [9-hydroxy risperidone, 3-{2-[4-(6-fluoro-benzo[d]isoxazol-3-yl)piperidin-1-yl]-ethyl}-9-hydroxy-2-methyl-6,7,8,9-tetrahydro-pyrido[1,2-α]pyrimidin-4-one] | – | – | – | – | – | – | – | – | – | Cmax ([4]; beagle, dog, 9.4 μmol/beagle): 360 ng/mL; half-life ([4]; beagle, dog, 9.4 μmol/beagle): 2.51 h; AUC [4]: 2422 nghr/ml; absolute bioavailability [5]: 28% |
| CCOC(=O)OC1CCCn2c1nc(C)c(CCN1CCC(c3noc4cc(F)ccc34)CC1)c2=O.Cl (stereo not drawn) [Compound 5, 3-{2-[4-(6-fluoro-1,2-benzoisoxazol-3-yl)-1-piperidinyl]ethyl}-2-methyl-4-oxo-6,7,8,9-tetrahydro-pyrido[1,2-α]pyrimidin-9-yl ethyl carbonate hydrochloride] | 95 | – | – | – | – | – | – | – | – | – |
| Cc1nc2n(c(=O)c1CCN1CCC(c3noc4cc(F)ccc34)CC1)CCCC2OC(=O)c1ccccc1 (stereo not drawn) [Compound 1, 3-{2-[4-(6-fluoro-1,2-benzoisoxazol-3-yl)-1-piperidinyl]-ethyl}-2-methyl-4-oxo-6,7,8,9-tetrahydro-pyrido[1,2-α]pyrimidin-9-yl benzoate] | 89 | 35 | 67 | 92 | 8.9 | 26 | 60 | 76 | 94 | – |
| CCCCCOC(=O)OC1CCCn2c1nc(C)c(CCN1CCC(c3noc4cc(F)ccc34)CC1)c2=O.Cl.Cl (stereo not drawn) [Compound 7, 3-{2-[4-(6-fluoro-1,2-benzoisoxazol-3-yl)-1-piperidinyl]ethyl}-2-methyl-4-oxo-6,7,8,9-tetrahydro-pyrido[1,2-α]pyrimidin-9-yl n-pentyl carbonate dihydrochloride] | 93 | 45 | 76 | 93 | 5.3 | 22 | 41 | 59 | 82 | – |
| Cc1ccc(C(=O)OC2CCCn3c2nc(C)c(CCN2CCC(c4noc5cc(F)ccc45)CC2)c3=O)cc1 (stereo not drawn) [Compound 2, 3-{2-[4-(6-fluoro-1,2-benzoisoxazol-3-yl)-1-piperidinyl]ethyl}-2-methyl-4-oxo-6,7,8,9-tetrahydro-pyrido[1,2-α]pyrimidin-9-yl 4-methylbenzoate] | 78 | – | – | – | – | – | – | – | – | – |
| Cc1nc2n(c(=O)c1CCN1CCC(c3noc4cc(F)ccc34)CC1)CCCC2 [Risperidone] | – | – | – | – | – | – | – | – | – | absolute bioavailability [5]: at least 70% |
